Assays:
PIM1 = PIM1 (Homo sapiens (Human), UniProt P11309); assay: biochemical; format: biochemical; settings: 20 pM PIM1, 1 μM FAM-peptide, 10 μM ATP, 90 minutes at room temperature; read-out: PIM1 LC3K (KI)
BaF3 parental cells = assay: In vitro cell proliferation, BaF3 parental line + IL3; format: cell-based, murine; settings: Mus musculus, BaF3, BaF3 parental, mIL-3, incubated overnight, CELL TITER GLO; read-out: Prolif BaF3 IL3 (IC50);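 note: BaF3 parental cells are murine IL-3 dependent pro-B cells grown with 2 ng/mL mIL-3, 384-well format, viability read by luminescence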
BaF3 PIM1 cells = assay: In vitro cell proliferation, BaF3 transfected with PIM1; format: cell-based, murine; settings: Mus musculus, BaF3, read-out: Prolif BaF3 PIM1 (IC50), BaF3 PIM1 cells, incubated overnight, CELL TITER GLO;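 note: murine IL-3-dependent pro-B BaF3 cells transfected with PIM1, compound exposure overnight at 37 °C under 5% CO2, viability read as luminescence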
Method: (§1) BaF3 parental line was obtained from the DSMZ repository. […] Media for BaF3 parental line contained RPMI, 10% FBS, 2 mM L-Glutamine, 2 ng/mL mIL-3. Media for BaF3 PIM1 & 2 lines contained RPMI, 10% FBS, 2 mM L-Glutamine, 250 μg/mL. Media for MM1.S (multiple myeloma cells) line contained RPMI, 10% FBS, 2 mM L-Glutamine.
(§2) BaF3, a murine interleukin-3 dependent pro-B cell line, parental cells, BaF3 PIM1 cells, BaF3 PIM2 cells, and MM1.S (multiple myeloma) cells were seeded at 2 k/well, 5 k/well, 5 k/well, and 10 k/well respectively, in a 384-well plate, at 45 μL/well. Test compound was added at 5 μL/well. BaF3 cells (parental and transfected) were incubated overnight, while MM1.S cells were incubated for 72 hours at 37° C., 5% CO2. CELL TITER GLO® Reagent (Promega) was added at 50 μL/well, the plates were incubated for 30 minutes, and their luminescence read on an HT Analyst. IC50/EC50 values for the test compound were calculated.

[1] = system: MM1.S (multiple myeloma) cells; assay: In vitro cell proliferation, MM1.S multiple myeloma cells; format: cell-based; settings: Homo sapiens, MM1.S, 72 h, MM1.S cells, 72 hours, CELL TITER GLO; read-out: Prolif MM1S ATP (EC50);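 note: cells cultured in RPMI with 10% FBS and 2 mM L-Glutamine, seeded in 384-well plates, exposed to compound, cell viability measured by luminescence after CellTiter-Glo addition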
Method: as §1, §2

Sequence of PIM1 (P11309 whole entry): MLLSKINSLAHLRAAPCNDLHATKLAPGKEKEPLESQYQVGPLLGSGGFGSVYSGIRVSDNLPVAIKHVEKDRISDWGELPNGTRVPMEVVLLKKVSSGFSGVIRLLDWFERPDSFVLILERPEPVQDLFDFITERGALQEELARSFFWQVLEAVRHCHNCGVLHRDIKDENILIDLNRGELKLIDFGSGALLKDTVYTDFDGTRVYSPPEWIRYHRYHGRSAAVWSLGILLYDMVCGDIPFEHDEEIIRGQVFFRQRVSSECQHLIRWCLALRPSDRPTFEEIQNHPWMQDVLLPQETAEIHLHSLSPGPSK

| Ki (PIM1) | IC50 (BaF3 PIM1 cells) | EC50 [1] | Structure (SMILES) | IC50 (BaF3 parental cells) |
| --- | --- | --- | --- | --- |
| 0.019 nM | 45.3 nM | 116 nM | Cn1ncc(NC(=O)c2nc(-c3cccc(F)c3F)sc2N)c1[C@@H]1CC[C@@H](N)[C@H](F)CO1 [Example 324, 5-amino-N-(5-((2S,5R,6S)-5-amino-6-fluorooxepan-2-yl)-1-methyl-1H-pyrazol-4-yl)-2-(2,3-difluorophenyl)thiazole-4-carboxamide] | > 25000 nM |
| 0.05 nM | 142 nM | 735 nM | Cn1ncc(NC(=O)c2csc(-c3ccc(F)cc3F)n2)c1[C@@H]1CC[C@@H](N)[C@H](F)CO1 [Example 325, N-(5-((2S,5R,6S)-5-amino-6-fluorooxepan-2-yl)-1-methyl-1H-pyrazol-4-yl)-2-(2,4-difluorophenyl)thiazole-4-carboxamide] | 6300 nM |
| 0.031 nM | 132 nM | 436 nM | Cn1ncc(NC(=O)c2csc(-c3ccccn3)n2)c1[C@@H]1CC[C@@H](N)[C@H](F)CO1 [Example 326, N-(5-((2S,5R,6S)-5-amino-6-fluorooxepan-2-yl)-1-methyl-1H-pyrazol-4-yl)-2-(pyridin-2-yl)thiazole-4-carboxamide] | 12400 nM |
| 0.021 nM | 176 nM | 648 nM | Cn1ncc(NC(=O)c2csc(-c3ccccc3)n2)c1[C@@H]1CC[C@@H](N)[C@H](F)CO1 [Example 327, N-(5-((2S,5R,6S)-5-amino-6-fluorooxepan-2-yl)-1-methyl-1H-pyrazol-4-yl)-2-phenylthiazole-4-carboxamide] | 16800 nM |
| 0.036 nM | 21.4 nM | 1500 nM | Cn1ncc(NC(=O)c2nc(-c3c(F)cccc3Cl)sc2N)c1[C@@H]1CC[C@@H](N)[C@H](F)CO1 [Example 328, 5-amino-N-(5-((2S,5R,6S)-5-amino-6-fluorooxepan-2-yl)-1-methyl-1H-pyrazol-4-yl)-2-(2-chloro-6-fluorophenyl)thiazole-4-carboxamide] | 12500 nM |
| 0.014 nM | 52.2 nM | 1900 nM | COC1(c2cc(F)c(-c3nc(C(=O)Nc4cnn(C)c4[C@@H]4CC[C@@H](N)[C@H](F)CO4)cs3)c(F)c2)COC1 [Example 339, N-(5-((2S,5R,6S)-5-amino-6-fluorooxepan-2-yl)-1-methyl-1H-pyrazol-4-yl)-2-(2,6-difluoro-4-(3-methoxyoxetan-3-yl)phenyl)thiazole-4-carboxamide] | > 25000 nM |
| 0.01 nM | 51.7 nM | > 6200 nM | Cn1ncc(NC(=O)c2csc(-c3c(F)cc(C4(F)COC4)cc3F)n2)c1[C@@H]1CC[C@@H](N)[C@H](F)CO1 [Example 340, N-(5-((2S,5R,6S)-5-amino-6-fluorooxepan-2-yl)-1-methyl-1H-pyrazol-4-yl)-2-(2,6-difluoro-4-(3-fluorooxetan-3-yl)phenyl)thiazole-4-carboxamide] | 20700 nM |
| 0.014 nM | 157 nM | 3300 nM | CO[C@@H]1CO[C@H](c2c(NC(=O)c3csc(-c4c(F)cccc4F)n3)cnn2C)CC[C@H]1N [Example 347, N-(5-((2S,5R,6S)-5-amino-6-methoxyoxepan-2-yl)-1-methyl-1H-pyrazol-4-yl)-2-(2,6-difluorophenyl)thiazole-4-carboxamide] | 5000 nM |
| 0.014 nM | 359 nM | 1000 nM | CO[C@@H]1CO[C@H](c2c(NC(=O)c3csc(-c4ncccc4C)n3)cnn2C)CC[C@H]1N [Example 348, N-(5-((2S,5R,6S)-5-amino-6-methoxyoxepan-2-yl)-1-methyl-1H-pyrazol-4-yl)-2-(3-methylpyridin-2-yl)thiazole-4-carboxamide] | 10500 nM |
| 0.076 nM | 621 nM | 520 nM | Cn1ncc(NC(=O)c2csc(-c3c(F)cccc3F)n2)c1[C@H]1CC[C@H](N)[C@H](O)CO1 [Example 351, N-(5-((2R,5S,6S)-5-amino-6-hydroxyoxepan-2-yl)-1-methyl-1H-pyrazol-4-yl)-2-(2,6-difluorophenyl)thiazole-4-carboxamide] | 9900 nM |
| 0.083 nM | 3400 nM | 5100 nM | CN(C)C(=O)c1cc(F)c(-c2nc(C(=O)Nc3cnn(C)c3[C@@H]3CC[C@@H](N)[C@H](F)CO3)cs2)c(F)c1 [Example 354, N-(5-((2S,5R,6S)-5-amino-6-fluorooxepan-2-yl)-1-methyl-1H-pyrazol-4-yl)-2-(4-(dimethylcarbamoyl)-2,6-difluorophenyl)thiazole-4-carboxamide] | 7300 nM |
| 0.035 nM | 53.5 nM | 1600 nM | CO[C@@H]1CO[C@H](c2c(NC(=O)c3csc(-c4c(F)cc(C)cc4F)n3)cnn2C)CC[C@H]1N [Example 355, N-(5-((2S,5R,6S)-5-amino-6-methoxyoxepan-2-yl)-1-methyl-1H-pyrazol-4-yl)-2-(2,6-difluoro-4-methylphenyl)thiazole-4-carboxamide] | 3900 nM |
| 0.053 nM | 108 nM | 1400 nM | COc1ccc(F)c(-c2nc(C(=O)Nc3cnn(C)c3[C@@H]3CC[C@@H](N)[C@H](F)CO3)cs2)c1 [Example 356, N-(5-((2S,5R,6S)-5-amino-6-fluorooxepan-2-yl)-1-methyl-1H-pyrazol-4-yl)-2-(2-fluoro-5-methoxyphenyl)thiazole-4-carboxamide] | 6500 nM |
| 0.009 nM | 68.2 nM | 938 nM | Cn1ncc(NC(=O)c2csc(-c3c(F)cc(C4CC4)cc3F)n2)c1[C@@H]1CC[C@@H](N)[C@H](F)CO1 [Example 358, N-(5-((2S,5R,6S)-5-amino-6-fluorooxepan-2-yl)-1-methyl-1H-pyrazol-4-yl)-2-(4-cyclopropyl-2,6-difluorophenyl)thiazole-4-carboxamide] | 4100 nM |
| 0.007 nM | 262 nM | 5800 nM | Cn1ncc(NC(=O)c2ccc(F)c(-c3ccc(Cl)cc3F)n2)c1[C@@H]1CC[C@@H](N)[C@H](F)CO1 [Example 359, N-(5-((2S,5R,6S)-5-amino-6-fluorooxepan-2-yl)-1-methyl-1H-pyrazol-4-yl)-6-(4-chloro-2-fluorophenyl)-5-fluoropicolinamide] | 11600 nM |
| 1.85 nM | 15200 nM | 9400 nM | Cn1ncc(NC(=O)c2csc(-c3c(F)ccc(S(C)(=O)=O)c3F)n2)c1[C@@H]1CC[C@@H](N)[C@H](F)CO1 [Example 360, N-[5-[(2S,5R,6S)-5-amino-6-fluoro-oxepan-2-yl]-1-methyl-pyrazol-4-yl]-2-(2,6-difluoro-3-methylsulfonyl-phenyl)thiazole-4-carboxamide] | 16500 nM |
| 0.068 nM | 250 nM | 452 nM | Cc1cccc(-c2nc(C(=O)Nc3cnn(C)c3[C@@H]3CC[C@@H](N)[C@H](F)CO3)cs2)c1F [Example 361, N-[5-[(2S,5R,6S)-5-amino-6-fluoro-oxepan-2-yl]-1-methyl-pyrazol-4-yl]-2-(2-fluoro-3-methyl-phenyl)thiazole-4-carboxamide] | 2800 nM |
